What was measured:
[1] = test system: LN-229 glioblastoma cell line; assay: Inhibition growth assay, Trypan blue exclusion; type: cell-based, human; conditions: LN-229, 48 h of incubation, mean ± SD of five independent experiments in duplicate
Description: On this basis, we investigated the antiproliferative effect of compounds 1–7 on LN-229, a human glioblastoma cell line. Compound 1 and the well-known antitumor drug doxorubicin were taken as references. […] The data in Table 3 support the lack of cytotoxicity of compound 1.
The LN-229 (human glioblastoma) was purchased from the American Type Culture Collection (ATCC) and cultured in DMEM (D2902, Sigma Chemical Co., St. Louis, MO, USA) supplemented with 3.5 g/L of glucose and 5% heat-inactivated fetal calf serum (FCS) (F7524, Sigma Chemical Co.), respectively. A total of 100 U/mL of penicillin, 100 μg/mL of streptomycin, and 0.25 μg/mL of amphotericin B (Sigma Chemical Co.) were added to the medium. Cells were cultured at 37 °C in a humidified atmosphere incubator containing 5% carbon dioxide in air.
Cells (3–6 × 10^4/well) were seeded into a 24-well cell culture plate; after 24 h, different concentrations of the test compounds or reference drug were added. After 48 h of incubation in standard conditions, the cell viability was determined by using a Trypan blue exclusion assay. Briefly, cells were detached by using a […] and 0.3 mM EDTA solution in PBS and stained with 0.1% Trypan blue solution in PBS. Unstained viable cells were immediately counted in a Burker chamber. The percentage of viable cells was calculated with respect to the untreated control culture. […] The goodness of the fit was expressed by the r^2 coefficient, and the best fit report included the analysis of variance corrected for the mean of the observations with the p values (p < 0.005 for all the tested compounds). Data are the means ± SD of at least five independent experiments in duplicate.

[2] = test system: MAO activity in LN-229 lysates; assay: MAO activity in LN-229 cell lysates, kynuramine assay; conditions: for Residual MAO activity in lysates: fraction of control
[3] = target: T1, human recombinant MAO B (Homo sapiens, UniProt P27338); assay: MAO B inhibition, kynuramine assay (4-hydroxyquinoline fluorescence); conditions: for Reversibility of MAO B inhibition: 5 μM compound for 25 min, diluted 50 times, 300 μM kynuramine; for Mode of inhibition of MAO B: Lineweaver–Burk plots / global fit (compound 7: Figure S1); for Time dependence of MAO B inhibition (Vo/VI ratio): pre-incubation 0 to 30 min with 2.5 μM compound
T1 sequence (P27338 1-520): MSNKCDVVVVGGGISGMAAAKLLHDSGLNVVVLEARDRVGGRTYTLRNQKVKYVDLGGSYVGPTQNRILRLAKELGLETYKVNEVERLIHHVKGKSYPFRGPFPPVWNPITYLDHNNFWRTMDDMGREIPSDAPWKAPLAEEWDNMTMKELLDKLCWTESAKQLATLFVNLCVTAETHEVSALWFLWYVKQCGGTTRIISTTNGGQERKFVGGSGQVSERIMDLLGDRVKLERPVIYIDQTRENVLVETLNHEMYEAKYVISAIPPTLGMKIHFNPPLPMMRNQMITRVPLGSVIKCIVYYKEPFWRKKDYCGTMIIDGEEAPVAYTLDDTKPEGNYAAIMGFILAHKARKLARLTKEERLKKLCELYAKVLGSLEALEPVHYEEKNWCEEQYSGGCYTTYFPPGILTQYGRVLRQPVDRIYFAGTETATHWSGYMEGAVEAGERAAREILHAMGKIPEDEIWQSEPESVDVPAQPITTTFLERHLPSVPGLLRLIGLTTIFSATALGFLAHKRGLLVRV

[4] = target: T2, human VAP-1 (Homo sapiens, UniProt Q16853); parameters: Biothie Therapies Cor; (Turku, Finland), gift; method as in PMID 21858471, PMID 30829081; conditions: previous studies ref 35, 40; cited from earlier work
T2 sequence (Q16853 1-763): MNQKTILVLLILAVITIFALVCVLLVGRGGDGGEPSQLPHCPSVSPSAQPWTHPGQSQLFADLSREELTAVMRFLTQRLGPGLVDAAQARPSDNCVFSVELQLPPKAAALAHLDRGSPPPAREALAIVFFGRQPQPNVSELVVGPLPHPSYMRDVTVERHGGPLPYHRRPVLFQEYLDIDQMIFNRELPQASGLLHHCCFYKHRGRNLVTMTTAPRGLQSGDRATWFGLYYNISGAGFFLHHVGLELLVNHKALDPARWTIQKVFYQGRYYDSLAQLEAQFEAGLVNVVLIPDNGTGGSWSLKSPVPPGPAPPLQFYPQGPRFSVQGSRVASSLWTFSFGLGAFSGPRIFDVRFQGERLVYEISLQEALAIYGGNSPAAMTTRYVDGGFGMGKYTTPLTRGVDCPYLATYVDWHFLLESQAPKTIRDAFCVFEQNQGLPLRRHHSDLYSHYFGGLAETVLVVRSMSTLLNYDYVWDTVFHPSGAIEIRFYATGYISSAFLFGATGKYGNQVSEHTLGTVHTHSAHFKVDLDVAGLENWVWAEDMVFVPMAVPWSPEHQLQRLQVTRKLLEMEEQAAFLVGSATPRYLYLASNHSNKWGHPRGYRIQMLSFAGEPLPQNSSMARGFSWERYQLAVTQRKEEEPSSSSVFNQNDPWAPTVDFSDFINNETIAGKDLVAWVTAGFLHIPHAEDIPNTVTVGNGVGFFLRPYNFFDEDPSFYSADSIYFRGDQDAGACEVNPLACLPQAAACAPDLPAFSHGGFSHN

[5] = target: murine SMOX (Mus musculus, UniProt Q99K82); parameters: made in house; host or cells: E. coli BL21 DE3; conditions: previous studies ref 35, 40; cited from earlier work
Chain of murine SMOX (Q99K82 whole entry): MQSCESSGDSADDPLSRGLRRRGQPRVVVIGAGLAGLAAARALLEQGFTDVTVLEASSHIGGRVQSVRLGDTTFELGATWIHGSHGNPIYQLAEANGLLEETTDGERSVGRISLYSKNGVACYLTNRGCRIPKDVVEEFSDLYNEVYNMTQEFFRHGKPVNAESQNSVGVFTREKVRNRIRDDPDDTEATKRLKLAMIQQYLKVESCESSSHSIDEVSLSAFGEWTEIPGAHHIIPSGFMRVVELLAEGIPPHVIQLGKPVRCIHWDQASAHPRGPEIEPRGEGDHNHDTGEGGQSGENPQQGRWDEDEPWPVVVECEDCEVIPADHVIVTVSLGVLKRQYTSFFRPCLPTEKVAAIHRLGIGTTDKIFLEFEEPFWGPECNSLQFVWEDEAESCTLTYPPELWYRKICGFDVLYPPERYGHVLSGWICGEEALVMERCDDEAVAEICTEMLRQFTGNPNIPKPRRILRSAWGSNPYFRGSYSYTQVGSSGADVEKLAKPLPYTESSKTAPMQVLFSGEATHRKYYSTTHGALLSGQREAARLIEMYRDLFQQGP

[6] = target: T3, human recombinant MAO A (Homo sapiens, UniProt P21397); assay: MAO A inhibition, kynuramine assay (4-hydroxyquinoline fluorescence); conditions: for Reversibility of MAO A inhibition: 5 μM compound for 25 min, diluted 50 times, 300 μM kynuramine; for Mode of inhibition of MAO A: Lineweaver–Burk plots / global fit; for Time dependence of MAO A inhibition (Vo/VI ratio): pre-incubation 0 to 30 min with 2.5 μM compound
T3 sequence (P21397 1-527): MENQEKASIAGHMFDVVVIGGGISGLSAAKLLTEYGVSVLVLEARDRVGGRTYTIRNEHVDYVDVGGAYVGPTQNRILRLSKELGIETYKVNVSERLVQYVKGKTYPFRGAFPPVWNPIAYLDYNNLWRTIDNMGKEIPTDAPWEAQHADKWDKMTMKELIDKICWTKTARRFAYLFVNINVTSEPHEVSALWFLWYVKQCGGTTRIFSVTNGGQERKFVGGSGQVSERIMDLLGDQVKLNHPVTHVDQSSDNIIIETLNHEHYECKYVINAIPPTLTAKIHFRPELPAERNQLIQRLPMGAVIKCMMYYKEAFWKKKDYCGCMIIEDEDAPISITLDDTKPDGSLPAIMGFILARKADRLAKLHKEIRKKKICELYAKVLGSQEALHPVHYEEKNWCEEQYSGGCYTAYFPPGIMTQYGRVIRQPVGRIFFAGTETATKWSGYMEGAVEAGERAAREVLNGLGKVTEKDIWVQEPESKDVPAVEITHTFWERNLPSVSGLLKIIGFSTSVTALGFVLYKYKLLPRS

[7] = target: T2, human VAP-1; assay: VAP-1 amine oxidase activity, Amplex Red/horseradish peroxidase assay, benzylamine as substrate
[8] = inhibitor 0.2 μM, 20 μM kynuramine
[9] = MAO B Ki, human recombinant MAO B, kynuramine 10 μM, from slope of Vo/VI vs compound concentration (1.25–40 μM), mean ± S.D.
[10] = MAO A Ki, human recombinant MAO A, kynuramine 10 μM, from slope of Vo/VI vs compound concentration (1.25–40 μM), mean ± S.D.
[11] = inhibitor 5 nM, 15 min pre-incubation, 300 μM kynuramine
[12] = KI (inhibition constant for the free enzyme) vs. MAO B, global fit, mixed model, inhibitor 0.25–2 μM, kynuramine varied
[13] = KIES (dissociation constant for the enzyme–substrate complex) vs. MAO B, global fit, mixed model, inhibitor 0.25–2 μM, kynuramine varied
[14] = KI (inhibition constant for the free enzyme) vs. MAO A, global fit, mixed model, inhibitor 0.25–2 μM, kynuramine varied
[15] = KIES (dissociation constant for the enzyme–substrate complex) vs. MAO A, global fit, mixed model, inhibitor 0.25–2 μM, kynuramine varied
[16] = kynuramine 20 μM, compound 0.05–8 μM

COc1cccc2c1C(=O)c1c(O)c3c(c(O)c1C2=O)C[C@@](O)(C(=O)CO)C[C@@H]3O[C@H]1C[C@H](N)[C@H](O)[C@H](C)O1 [DOXO, doxorubicin, reference compound]
GI50 ([1]; Homo sapiens, LN-229, 48 h): 12 ± 4 nM

C#CCN(C)Cc1ccccc1 [Pargyline, pargyline]
Residual MAO activity in lysates ([2]; inhibitor 0.5 mM, 15 min pre-incubation, 300 μM kynuramine): 0.03 ± 0.02 | Residual activity in lysates after pre-incubation ([2]; pargyline pre-incubation 15 min, kynuramine 300 μM): about 3%

COc1ccc2c(c1)[nH]c1c(C)nccc12 [Harmine, reference compound]
Ki ([3]; MAO B Ki, human recombinant MAO B, kynuramine 10 μM, […], mean ± S.D.): > 10 µM | Residual MAO activity in lysates [2, 8]: 0.37 ± 0.08

COc1ccccc1CNCCCCCCNCCCCCCCCNCCCCCCNCc1ccccc1OC [Compound 1, methoctramine, reference compound]
GI50 ([1]; Homo sapiens): > 20000 nM | Inhibition of VAP-1 [4]: very poorly active | Ki [3, 9]: 470 ± 50 µM | Inhibition of SMOX [5]: more effective than 2 | Ki [6, 10]: 290 ± 60 µM

NCCC(=O)c1ccccc1N [kynuramine, reference compound]
Km ([3]; read-out: KM for MAO B, substrate, human recombinant MAO B): 27 ± 4 µM | Km ([2]; read-out: apparent KM in LN-229 lysates, substrate, Michaelis–Menten fit): 25 ± 3 µM

C#CCN(C)CCCOc1ccc(Cl)cc1Cl [Clorgyline, clorgyline]
Residual MAO activity in lysates [2, 11]: 0.34 ± 0.10

COc1ccccc1CNCCCCCCNc1ccc(CCc2ccc(NCCCCCCNCc3ccccc3OC)cc2)cc1 [Compound 4]
GI50 ([1]; Homo sapiens, LN-229, 48 h): < 1000 nM | GI50 [1]: 900 ± 200 nM | Reversibility of MAO B inhibition [3]: full reversibility | Ki [3, 12]: 0.31 ± 0.05 µM | Ki [3, 13]: 15 ± 2 µM | Mode of inhibition of MAO B [3]: mainly competitive/mixed | Ki [3, 9]: 0.3 ± 0.1 µM | Time dependence of MAO B inhibition (Vo/VI ratio) ([3]; kynuramine 10 μM): no time dependence of the inhibition was observed | Reversibility of MAO A inhibition [6]: full reversibility | Ki [6, 14]: 0.62 ± 0.11 µM | Ki [6, 15]: 11 ± 2 µM | Mode of inhibition of MAO A [6]: mainly competitive/mixed | Ki [6, 10]: 0.9 ± 0.2 µM | Time dependence of MAO A inhibition (Vo/VI ratio) ([6]; kynuramine 10 μM): no time dependence of the inhibition was observed | Effect on MAO activity in LN-229 lysates [2, 16]: not affected

COc1ccccc1CNCCCCCC(=O)Nc1ccc(CCc2ccc(NC(=O)CCCCCNCc3ccccc3OC)cc2)cc1 [Compound 5]
GI50 ([1]; Homo sapiens, LN-229, 48 h): < 1000 nM | GI50 [1]: 800 ± 100 nM | Reversibility of MAO B inhibition [3]: full reversibility | Ki [3, 12]: 0.16 ± 0.04 µM | Ki [3, 13]: 6 ± 1 µM | Mode of inhibition of MAO B [3]: mainly competitive/mixed | Ki [3, 9]: 0.2 ± 0.1 µM | Time dependence of MAO B inhibition (Vo/VI ratio) ([3]; kynuramine 10 μM): no time dependence of the inhibition was observed | Ki [7]: ~50 µM | Reversibility of MAO A inhibition [6]: full reversibility | Ki [6, 14]: 0.62 ± 0.09 µM | Ki [6, 15]: 14 ± 2 µM | Mode of inhibition of MAO A [6]: mainly competitive/mixed | Ki [6, 10]: 0.6 ± 0.1 µM | Time dependence of MAO A inhibition (Vo/VI ratio) ([6]; kynuramine 10 μM): no time dependence of the inhibition was observed | Effect on MAO activity in LN-229 lysates [2, 16]: concentration-dependent inhibition | Ki ([2]; read-out: Ki for MAO activity in LN-229 lysates, kynuramine 20 μM, compound 0.05–8 μM): 2000 nM

COc1ccccc1CNCCCCCCN1C(=O)c2ccc3c4c(ccc(c24)C1=O)C(=O)N(CCCCCCNCc1ccccc1OC)C3=O [Compound 7]
GI50 ([1]; Homo sapiens, LN-229, 48 h): 400 ± 100 nM | Mode of inhibition of MAO B [3]: mainly competitive/mixed | Ki [3, 9]: 4.2 ± 0.3 µM | Ki [6, 10]: 3.2 ± 0.2 µM

COc1ccccc1CNCCCCCCN1Cc2ccc3c4c(ccc(c24)C1)CN(CCCCCCNCc1ccccc1OC)C3 [Compound 6]
GI50 ([1]; Homo sapiens, LN-229, 48 h): 2000 ± 900 nM | Ki [3, 9]: 27 ± 4 µM | Ki [6, 10]: 37 ± 4 µM

C[C@H](NCc1ccc(OCc2cccc(F)c2)cc1)C(N)=O [Safinamide]
Residual MAO activity in lysates [2, 8]: 0.66 ± 0.04

C#CCN(C)[C@H](C)Cc1ccccc1 [Deprenyl, deprenyl]
Residual MAO activity in lysates [2, 11]: 0.74 ± 0.04

Reference: paper PMC10490032, “From Monoamine Oxidase Inhibition to Antiproliferative Activity: New Biological Perspectives for Polyamine Analogs” (Molecules, 2023)
